# Laboratory results: the supplement of paper PMC13207355
# Legend:
# Settings in all cases: exposure time: 72 h
# [1] = test system: E57 (patient-derived glioblastoma stem cells of mesenchymal subtype); assay: surviving fraction (nuclei count normalised to DMSO); higher = more cells surviving (less toxic)
# [2] = test system: E31 (patient-derived glioblastoma stem cells of proneural subtype); assay: as above
# [3] = test system: E21 (patient-derived glioblastoma stem cells of mesenchymal subtype); assay: as above
# [4] = test system: FT3469 (normal neural stem cell line); assay: as above
# [5] = test system: E34 (patient-derived glioblastoma stem cells of proneural subtype); assay: as above
# [6] = test system: E28 (patient-derived glioblastoma stem cells of classical subtype); assay: as above
# [7] = test system: E13 (patient-derived glioblastoma stem cells of classical subtype); assay: as above
# [8] = test system: E57; assay: phenotypic distance (Euclidean, principal components) from DMSO controls (arbitrary units); higher = stronger morphological change
# [9] = test system: E31; assay: as above
# [10] = test system: E21; assay: as above
# [11] = test system: FT3469; assay: as above
# [12] = test system: E34; assay: as above
# [13] = test system: E28; assay: as above
# [14] = test system: E13; assay: as above
# 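Throughout, for phenotypic distance (Euclidean, principal components) from DMSO controls: cell Painting imaging in 384-well plates, CellProfiler features reduced to at least 20 principal components, Euclidean distance versus same-plate DMSO vehicle wells (0.1% v/v), median over six images per well.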
# 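Throughout, for surviving fraction (nuclei count normalised to DMSO): nuclei counted by high-content imaging of Hoechst-stained cells in laminin-coated 384-well plates, relative to 0.1% DMSO vehicle wells, with staurosporine as cell-death control.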
smiles,measurement,setting,value
Nc1ncn(C2OC(CO)C(O)C2O)c(=O)n1 (stereo unspecified) [Azacytidine-5],surviving fraction,[1]; 4.1 nM,0.979
same,surviving fraction,[1]; 12.3 nM,1.09
same,surviving fraction,[1]; 37 nM,0.948
same,surviving fraction,[1]; 111.1 nM,0.974
same,surviving fraction,[1]; 333.3 nM,0.859
same,surviving fraction,[1]; 1000 nM,0.702
same,surviving fraction,[1]; 3000 nM,0.411
same,surviving fraction,[2]; 4.1 nM,0.962
same,surviving fraction,[2]; 12.3 nM,0.827
same,surviving fraction,[2]; 37 nM,0.96
same,surviving fraction,[2]; 111.1 nM,0.986
same,surviving fraction,[2]; 333.3 nM,1.04
same,surviving fraction,[2]; 1000 nM,0.731
same,surviving fraction,[2]; 3000 nM,0.439
same,surviving fraction,[3]; 4.1 nM,0.945
same,surviving fraction,[3]; 12.3 nM,0.932
same,surviving fraction,[3]; 37 nM,1.07
same,surviving fraction,[3]; 111.1 nM,0.892
same,surviving fraction,[3]; 333.3 nM,0.978
same,surviving fraction,[3]; 1000 nM,0.779
same,surviving fraction,[3]; 3000 nM,0.634
same,surviving fraction,[4]; 4.1 nM,0.953
same,surviving fraction,[4]; 12.3 nM,1
same,surviving fraction,[4]; 37 nM,1.1
same,surviving fraction,[4]; 111.1 nM,0.935
same,surviving fraction,[4]; 333.3 nM,0.809
same,surviving fraction,[4]; 1000 nM,1.04
same,surviving fraction,[4]; 3000 nM,0.906
same,surviving fraction,[5]; 4.1 nM,0.935
same,surviving fraction,[5]; 12.3 nM,0.979
same,surviving fraction,[5]; 37 nM,0.89
same,surviving fraction,[5]; 111.1 nM,1.09
same,surviving fraction,[5]; 333.3 nM,1.04
same,surviving fraction,[5]; 1000 nM,0.914
same,surviving fraction,[5]; 3000 nM,0.858
same,surviving fraction,[6]; 4.1 nM,0.969
same,surviving fraction,[6]; 12.3 nM,1.09
same,surviving fraction,[6]; 37 nM,0.969
same,surviving fraction,[6]; 111.1 nM,1.1
same,surviving fraction,[6]; 333.3 nM,0.952
same,surviving fraction,[6]; 1000 nM,1.15
same,surviving fraction,[6]; 3000 nM,0.764
same,surviving fraction,[7]; 4.1 nM,0.948
same,surviving fraction,[7]; 12.3 nM,0.902
same,surviving fraction,[7]; 37 nM,0.957
same,surviving fraction,[7]; 111.1 nM,1
same,surviving fraction,[7]; 333.3 nM,1.01
same,surviving fraction,[7]; 1000 nM,0.894
same,surviving fraction,[7]; 3000 nM,0.634
same,phenotypic distance,[8]; 4.1 nM,0.265
same,phenotypic distance,[8]; 12.3 nM,1.15
same,phenotypic distance,[8]; 37 nM,0.6
same,phenotypic distance,[8]; 111.1 nM,0.593
same,phenotypic distance,[8]; 333.3 nM,1.38
same,phenotypic distance,[8]; 1000 nM,2.03
same,phenotypic distance,[8]; 3000 nM,3.86
same,phenotypic distance,[9]; 4.1 nM,0.548
same,phenotypic distance,[9]; 12.3 nM,0.901
same,phenotypic distance,[9]; 37 nM,0.564
same,phenotypic distance,[9]; 111.1 nM,0.874
same,phenotypic distance,[9]; 333.3 nM,1.27
same,phenotypic distance,[9]; 1000 nM,1.11
same,phenotypic distance,[9]; 3000 nM,2.48
same,phenotypic distance,[10]; 4.1 nM,1.45
same,phenotypic distance,[10]; 12.3 nM,0.512
same,phenotypic distance,[10]; 37 nM,0.843
same,phenotypic distance,[10]; 111.1 nM,1.36
same,phenotypic distance,[10]; 333.3 nM,1.28
same,phenotypic distance,[10]; 1000 nM,1.92
same,phenotypic distance,[10]; 3000 nM,2.82
same,phenotypic distance,[11]; 4.1 nM,0.816
same,phenotypic distance,[11]; 12.3 nM,0.612
same,phenotypic distance,[11]; 37 nM,0.486
same,phenotypic distance,[11]; 111.1 nM,1.17
same,phenotypic distance,[11]; 333.3 nM,0.757
same,phenotypic distance,[11]; 1000 nM,0.865
same,phenotypic distance,[11]; 3000 nM,1.77
same,phenotypic distance,[12]; 4.1 nM,0.787
same,phenotypic distance,[12]; 12.3 nM,0.546
same,phenotypic distance,[12]; 37 nM,0.387
same,phenotypic distance,[12]; 111.1 nM,0.835
same,phenotypic distance,[12]; 333.3 nM,0.732
same,phenotypic distance,[12]; 1000 nM,0.672
same,phenotypic distance,[12]; 3000 nM,1.24
same,phenotypic distance,[13]; 4.1 nM,0.577
same,phenotypic distance,[13]; 12.3 nM,0.65
same,phenotypic distance,[13]; 37 nM,0.956
same,phenotypic distance,[13]; 111.1 nM,0.825
same,phenotypic distance,[13]; 333.3 nM,3.86
same,phenotypic distance,[13]; 1000 nM,0.76
same,phenotypic distance,[13]; 3000 nM,1.01
same,phenotypic distance,[14]; 4.1 nM,0.774
same,phenotypic distance,[14]; 12.3 nM,0.925
same,phenotypic distance,[14]; 37 nM,0.631
same,phenotypic distance,[14]; 111.1 nM,1.16
same,phenotypic distance,[14]; 333.3 nM,1.01
same,phenotypic distance,[14]; 1000 nM,2.56
same,phenotypic distance,[14]; 3000 nM,4.39
COC(=O)C[C@](O)(CCCC(C)(C)O)C(=O)O[C@@H]1C(OC)=C[C@]23CCCN2CCc2cc4c(cc2[C@H]13)OCO4 [Homoharringtonine],surviving fraction,[1]; 4.1 nM,0.931
same,surviving fraction,[1]; 12.3 nM,0.677
same,surviving fraction,[1]; 37 nM,0.207
same,surviving fraction,[1]; 111.1 nM,0.215
same,surviving fraction,[1]; 333.3 nM,0.102
same,surviving fraction,[1]; 1000 nM,0.0784
same,surviving fraction,[1]; 3000 nM,0.0251
same,surviving fraction,[2]; 4.1 nM,0.502
same,surviving fraction,[2]; 12.3 nM,0.372
same,surviving fraction,[2]; 37 nM,0.226
same,surviving fraction,[2]; 111.1 nM,0.218
same,surviving fraction,[2]; 333.3 nM,0.209
same,surviving fraction,[2]; 1000 nM,0.164
same,surviving fraction,[2]; 3000 nM,0.171
same,surviving fraction,[3]; 4.1 nM,0.726
same,surviving fraction,[3]; 12.3 nM,0.721
same,surviving fraction,[3]; 37 nM,0.289
same,surviving fraction,[3]; 111.1 nM,0.402
same,surviving fraction,[3]; 333.3 nM,0.186
same,surviving fraction,[3]; 1000 nM,0.179
same,surviving fraction,[3]; 3000 nM,0.0999
same,surviving fraction,[4]; 4.1 nM,0.701
same,surviving fraction,[4]; 12.3 nM,0.669
same,surviving fraction,[4]; 37 nM,0.604
same,surviving fraction,[4]; 111.1 nM,0.589
same,surviving fraction,[4]; 333.3 nM,0.536
same,surviving fraction,[4]; 1000 nM,0.53
same,surviving fraction,[4]; 3000 nM,0.436
same,surviving fraction,[5]; 4.1 nM,0.844
same,surviving fraction,[5]; 12.3 nM,0.873
same,surviving fraction,[5]; 37 nM,0.505
same,surviving fraction,[5]; 111.1 nM,0.553
same,surviving fraction,[5]; 333.3 nM,0.434
same,surviving fraction,[5]; 1000 nM,0.412
same,surviving fraction,[5]; 3000 nM,0.337
same,surviving fraction,[6]; 4.1 nM,0.694
same,surviving fraction,[6]; 12.3 nM,0.573
same,surviving fraction,[6]; 37 nM,0.334
same,surviving fraction,[6]; 111.1 nM,0.41
same,surviving fraction,[6]; 333.3 nM,0.336
same,surviving fraction,[6]; 1000 nM,0.343
same,surviving fraction,[6]; 3000 nM,0.282
same,surviving fraction,[7]; 4.1 nM,0.73
same,surviving fraction,[7]; 12.3 nM,0.702
same,surviving fraction,[7]; 37 nM,0.367
same,surviving fraction,[7]; 111.1 nM,0.401
same,surviving fraction,[7]; 333.3 nM,0.316
same,surviving fraction,[7]; 1000 nM,0.239
same,surviving fraction,[7]; 3000 nM,0.0816
same,phenotypic distance,[8]; 4.1 nM,1.28
same,phenotypic distance,[8]; 12.3 nM,2.53
same,phenotypic distance,[8]; 37 nM,4.58
same,phenotypic distance,[8]; 111.1 nM,4.46
same,phenotypic distance,[8]; 333.3 nM,6.69
same,phenotypic distance,[8]; 1000 nM,8.52
same,phenotypic distance,[8]; 3000 nM,8.81
same,phenotypic distance,[9]; 4.1 nM,1.9
same,phenotypic distance,[9]; 12.3 nM,2.41
same,phenotypic distance,[9]; 37 nM,3.5
same,phenotypic distance,[9]; 111.1 nM,4.14
same,phenotypic distance,[9]; 333.3 nM,4.68
same,phenotypic distance,[9]; 1000 nM,5.99
same,phenotypic distance,[9]; 3000 nM,5.88
same,phenotypic distance,[10]; 4.1 nM,1.39
same,phenotypic distance,[10]; 12.3 nM,1.73
same,phenotypic distance,[10]; 37 nM,4.36
same,phenotypic distance,[10]; 111.1 nM,3.63
same,phenotypic distance,[10]; 333.3 nM,4.11
same,phenotypic distance,[10]; 1000 nM,5.37
same,phenotypic distance,[10]; 3000 nM,8.36
same,phenotypic distance,[11]; 4.1 nM,1.22
same,phenotypic distance,[11]; 12.3 nM,1.49
same,phenotypic distance,[11]; 37 nM,1.36
same,phenotypic distance,[11]; 111.1 nM,2
same,phenotypic distance,[11]; 333.3 nM,1.75
same,phenotypic distance,[11]; 1000 nM,2.95
same,phenotypic distance,[11]; 3000 nM,3.51
same,phenotypic distance,[12]; 4.1 nM,1.44
same,phenotypic distance,[12]; 12.3 nM,1.62
same,phenotypic distance,[12]; 37 nM,2.68
same,phenotypic distance,[12]; 111.1 nM,3.86
same,phenotypic distance,[12]; 333.3 nM,3.89
same,phenotypic distance,[12]; 1000 nM,4.65
same,phenotypic distance,[12]; 3000 nM,6.65
same,phenotypic distance,[13]; 4.1 nM,1.42
same,phenotypic distance,[13]; 12.3 nM,1.38
same,phenotypic distance,[13]; 37 nM,2.63
same,phenotypic distance,[13]; 111.1 nM,1.37
same,phenotypic distance,[13]; 333.3 nM,2.87
same,phenotypic distance,[13]; 1000 nM,3.53
same,phenotypic distance,[13]; 3000 nM,4.17
same,phenotypic distance,[14]; 4.1 nM,1.66
same,phenotypic distance,[14]; 12.3 nM,2.13
same,phenotypic distance,[14]; 37 nM,4.35
same,phenotypic distance,[14]; 111.1 nM,3.97
same,phenotypic distance,[14]; 333.3 nM,5.67
same,phenotypic distance,[14]; 1000 nM,7.51
same,phenotypic distance,[14]; 3000 nM,8.63
